Earlier results in patent US8137579B2, “Non-aqueous heat transfer fluid and use thereof” (priority 1993, dated 2012).
Like-named read-outs stand apart in the source and are kept apart here.

Columns and labels:
[1] = laboratory rats, single dose, acute oral

Row | SMILES | LD50 rating (laboratory rats; rat, in vivo, po) [mg/kg] | LD50 rating (laboratory rats; [1]) [mg/kg] | toxic level to humans, reported as low as (humans) [g/kg]
1 | CC(O)COC(C)COC(C)CO (stereo not drawn) [tripropylene glycol] | 3000 | – | –
2 | OCCOCCO [Diethylene glycol] | – | 16600 | –
3 | OCCOCCOCCO [triethylene glycol] | 22000 | – | –
4 | OCCO [EG, ethylene glycol] | – | 6100 | 0.398
5 | CC(O)CO (stereo not drawn) [PG, propylene glycol] | – | 33700 | –
